Legend:
NDRG1 = assay: Western blot analysis, NDRG1 expression; type: cell-based; settings: MIAPaCa-2 cells
Description: (§1) Western analysis was performed via established protocols (Gao, J. and D. R. Richardson (2001). Blood 98: 842-50). The primary antibodies used were against NDRG1 (Abcam; UK), p21, cyclin D1, transferrin receptor 1 (TfR1; Santa Cruz, CA, USA) and β-actin (Sigma-Aldrich), with secondary HRP-conjugated goat and mouse antibodies (Sigma-Aldrich).
(§2) Dp4cycH4mT was examined to determine whether it could up-regulate NDRG-1 expression. To further evaluate the effect of the chelator Dp4cycH4mT on other key molecules involved in cell cycle progression, the expression of the cyclin-dependent kinase inhibitor, p21, as well as cyclin D1 in MIAPaCa-2 cells was also examined.

[1] = system: SK-N-MC neuroepithelioma cell line; assay: MTT anti-proliferative assay in SK-N-MC cells; type: cell-based, human; settings: Homo sapiens, 72 h at 37° C., mean±SD (3 experiments)
Description: The cells were maintained in minimum essential media (MEM; Invitrogen, CA, USA) which contained 10% fetal calf serum (FCS; JRH Biosciences, Kansas, USA), 1% non-essential amino acids (Gibco, Victoria, Australia), 1% penicillin/streptomycin/glutamine (Gibco, VIC, Australia) and fungizone ([…]; Squibb Pharmaceuticals, Montreal, Canada).
The ability of the compounds to inhibit cellular proliferation was assessed initially in SK-N-MC cells by the MTT assay.
Table 1. […] Cells were seed and allowed to attach to wells for 24 h and then incubated for 72 h at 37° C. with control medium or the chelators.

[2] = system: SK-N-MC neuroepithelioma cells; assay: Iron uptake assay (59Fe uptake from 59Fe-transferrin); type: cell-based, human; settings: 25 μM chelator, 3 h at 37° C., 59Fe-Tf
Description: Cells were cultured in the same way as for the iron efflux experiments. […] At the end of the incubation the culture dishes were placed on ice, the media aspirated, and the cells washed 4 times with ice cold PBS. Protease (1 mL; 1 mg/mL; Sigma-Aldrich, NSW, Australia) solution was added to each plate and allowed to incubate on ice for 30 min. This facilitated the removal of membrane bound ^59Fe-Tf. Cells were then scraped from the plastic surface using a Teflon spatula and collected in Eppendorf tubes. These were centrifuged at 10000 rpm and 4° C. for 3 min. The supernatant was then transferred into counting tubes and the cell pellet resuspended in PBS before also being transferred into another set of counting tubes. Radioactivity was measured using a Wallac Wizard 3″ Gamma Counter (PerkinElmer, MA, USA). Results are expressed as average ^59Fe content of the cellular fraction as a percentage of the control value.

cyclin D1 = assay: Western blot analysis, cyclin D1 levels; type: cell-based; settings: MIAPaCa-2 cells
Description: as §1, §2

metmyoglobin (metMb) = assay: metMb formation in vivo; set-up: species or system C57BL6 mice; settings: 6 mg/kg intravenously, 30 min post-administration, heart
Description: FIG. 14. Effect of thiosemicarbazone chelators on metMb-formation in vivo. MetMb levels after Dp44mT Triapine® or Dp4cycH4mT treatment in vivo at a dose of 6 mg/kg administered intravenously via the tail vein. Mice in the control group were treated with vehicle alone. At 30 min post-administration, whole hearts were collected for determination of metMb levels.
Mouse heart tissue was exhaustively perfused with ice-cold HBSS to remove blood and homogenized in ice-cold HBSS containing protease inhibitor cocktail (Roche, Basel, Switzerland). Heart homogenates were centrifuged (16,000×xg/45 min/4° C.) and the supernatant ([oxyMb]=50 μM) used immediately.
The levels of metHb and metMb in RBC lysates were determined using a Shimadzu UV-Vis spectrophotometer (UV-1800; Shimadzu Corporation, Kyoto, Japan) at 577 nm and 630 nm for metHb and metMb in accordance with published methods (Winterbourn CC and Carrell R W (1977). Biochem J 165: 141-148).
C57BL6 mice (7-8 weeks-old) were used under a protocol approved by the university of Sydney Animal Ethics Committee. Dp44mT, Triapine® or Dp4cycH4mT (all at 6 mg/kg) were dissolved in 30% propylene glycol/saline and administered iv via the tail vein. Subsequently, 30 min after administration, mice were anesthetized with isoflurane and blood samples obtained by cardiac puncture. Blood samples were lysed with 2.5 volumes of ultrapure water for metHb estimation. Mice were sacrificed with isoflurane, the heart exhaustively perfused with HBSS and Mb isolated.

- IC50 [1]: 13 nM
- levels of metMb (metmyoglobin (metMb)): 31.7±3.2%
Structure (SMILES): CN(C(=S)NN=C(c1ccccn1)c1ccccn1)C1CCCCC1 [Dp4cycH4mT, di-2-pyridylketone 4-cyclohexyl-4-methyl-3-thiosemicarbazone]
- NDRG1 expression (NDRG1): significantly (p<0.01) up-regulated
- cellular 59Fe uptake (% of the control) [2]: 21%
- cyclin D1 levels (cyclin D1): significantly (p<0.05) reduced
